# Data taken from ChEMBL document CHEMBL1201862, “PubChem BioAssay data set” (2004).
#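 Five concentrations, 48 hours, 96-well plates. GI50 = concentration required for 50% inhibition of growth.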 Active and inactive are the calls of the source. Cut-off read from the data, not from the text of the source: active = GI50 up to about 1.1 µM and inactive = higher.
# Assays:
# Test in all cases: NCI tumour cell line growth inhibition, 48 h
# [1] = test system: SF-268
# [2] = test system: HL-60
# [3] = test system: SK-OV-3
# [4] = test system: SF-295
# [5] = test system: OVCAR-8
# [6] = test system: OVCAR-5
# [7] = test system: UACC-62
# [8] = test system: UACC-257
# [9] = test system: CCRF-CEM
# [10] = test system: MOLT-4
# [11] = test system: UO-31
# [12] = test system: SR
# [13] = test system: SNB-75
# [14] = test system: NCI-H522
# [15] = test system: TK-10
# [16] = test system: Malme-3M
# [17] = test system: K562
# [18] = test system: SK-MEL-28
# [19] = test system: M14
# [20] = test system: SK-MEL-5
# [21] = test system: LXFL 529
# [22] = test system: U-251
# [23] = test system: IGROV-1
# [24] = test system: KM12
# [25] = test system: EKVX
# [26] = test system: SNB-19
# [27] = test system: SW-620
# [28] = test system: 786-0
# [29] = test system: HT-29
# [30] = test system: NCI-H226
# [31] = test system: DMS-273
# [32] = test system: RPMI-8226
# [33] = test system: SF-539
# [34] = test system: NCI-H23
# [35] = test system: SNB-78
# [36] = test system: A549
# [37] = test system: OVCAR-4
# [38] = test system: HCT-15
# [39] = test system: ACHN
# [40] = test system: LOX IMVI
# [41] = test system: DLD-1
# [42] = test system: SK-MEL-2
# [43] = test system: A498
# [44] = test system: OVCAR-3
# [45] = test system: M19-MEL
# [46] = test system: HOP-62
# [47] = test system: NCI-H460
# [48] = test system: RXF 393
# [49] = test system: HCC 2998
# [50] = test system: SN12C
# [51] = test system: COLO 205
# [52] = test system: HOP-92
# [53] = test system: CAKI-1
# [54] = test system: NCI/ADR-RES
# [55] = test system: DMS-114
# [56] = test system: KM-20L2
# [57] = test system: MCF7
# [58] = test system: HCT-116
# [59] = test system: HOP-18
structure (smiles),measurement,setting,value
CCc1oc2ccc(OC)c3c2c1C=CC=C3,GI50,[1],> 100 µM (inactive)
same,GI50,[2],87.7 µM (inactive)
same,GI50,[3],> 100 µM (inactive)
same,GI50,[4],> 100 µM (inactive)
same,GI50,[5],> 100 µM (inactive)
same,GI50,[6],> 100 µM (inactive)
same,GI50,[7],> 100 µM (inactive)
same,GI50,[8],> 100 µM (inactive)
same,GI50,[9],> 100 µM (inactive)
same,GI50,[10],> 100 µM (inactive)
same,GI50,[11],21.9 µM (inactive)
same,GI50,[12],> 100 µM (inactive)
same,GI50,[13],60.3 µM (inactive)
same,GI50,[14],> 100 µM (inactive)
same,GI50,[15],> 100 µM (inactive)
same,GI50,[16],> 100 µM (inactive)
same,GI50,[17],> 100 µM (inactive)
same,GI50,[18],> 100 µM (inactive)
same,GI50,[19],> 100 µM (inactive)
same,GI50,[20],> 100 µM (inactive)
same,GI50,[21],> 100 µM (inactive)
same,GI50,[22],> 100 µM (inactive)
same,GI50,[23],> 100 µM (inactive)
same,GI50,[24],> 100 µM (inactive)
same,GI50,[25],> 100 µM (inactive)
same,GI50,[26],> 100 µM (inactive)
same,GI50,[27],> 100 µM (inactive)
same,GI50,[28],> 100 µM (inactive)
same,GI50,[29],77.3 µM (inactive)
same,GI50,[30],> 100 µM (inactive)
same,GI50,[31],> 100 µM (inactive)
same,GI50,[32],> 100 µM (inactive)
same,GI50,[33],> 100 µM (inactive)
same,GI50,[34],> 100 µM (inactive)
same,GI50,[35],> 100 µM (inactive)
same,GI50,[36],> 100 µM (inactive)
same,GI50,[37],> 100 µM (inactive)
same,GI50,[38],> 100 µM
same,GI50,[39],> 100 µM (inactive)
same,GI50,[40],> 100 µM (inactive)
same,GI50,[41],> 100 µM (inactive)
same,GI50,[42],> 100 µM (inactive)
same,GI50,[43],> 100 µM (inactive)
same,GI50,[44],> 100 µM (inactive)
same,GI50,[45],> 100 µM (inactive)
same,GI50,[46],> 100 µM (inactive)
same,GI50,[47],> 100 µM (inactive)
same,GI50,[48],54.1 µM (inactive)
same,GI50,[49],> 100 µM (inactive)
same,GI50,[50],> 100 µM (inactive)
same,GI50,[51],> 100 µM (inactive)
N/C(=N\O)N/N=C\c1c(O)cc(O)cc1O,GI50,[1],> 100 µM (inactive)
same,GI50,[2],26.1 µM (inactive)
same,GI50,[3],> 89.1 µM (inactive)
same,GI50,[4],> 46.8 µM (inactive)
same,GI50,[5],39.4 µM (inactive)
same,GI50,[6],> 100 µM (inactive)
same,GI50,[7],15.8 µM (inactive)
same,GI50,[8],99.3 µM (inactive)
same,GI50,[9],31.8 µM (inactive)
same,GI50,[52],54.8 µM (inactive)
same,GI50,[53],> 100 µM (inactive)
same,GI50,[10],39.8 µM (inactive)
same,GI50,[11],26 µM (inactive)
same,GI50,[13],> 47.6 µM (inactive)
same,GI50,[14],39.7 µM (inactive)
same,GI50,[16],> 100 µM (inactive)
same,GI50,[17],29.2 µM (inactive)
same,GI50,[18],> 100 µM (inactive)
same,GI50,[20],50.6 µM (inactive)
same,GI50,[22],41.6 µM (inactive)
same,GI50,[23],44.5 µM (inactive)
same,GI50,[24],36.4 µM (inactive)
same,GI50,[25],> 35.2 µM (inactive)
same,GI50,[26],65.9 µM (inactive)
same,GI50,[27],> 70.3 µM (inactive)
same,GI50,[29],93.8 µM (inactive)
same,GI50,[54],79.6 µM (inactive)
same,GI50,[30],66.7 µM (inactive)
same,GI50,[55],44.2 µM (inactive)
same,GI50,[31],14.3 µM (inactive)
same,GI50,[32],15.6 µM (inactive)
same,GI50,[33],> 100 µM (inactive)
same,GI50,[34],> 75 µM (inactive)
same,GI50,[35],> 100 µM (inactive)
same,GI50,[36],45.1 µM (inactive)
same,GI50,[37],> 68.4 µM (inactive)
same,GI50,[56],> 100 µM (inactive)
same,GI50,[38],63.4 µM
same,GI50,[40],60.8 µM (inactive)
same,GI50,[41],> 82.8 µM (inactive)
same,GI50,[42],> 100 µM (inactive)
same,GI50,[43],> 100 µM (inactive)
same,GI50,[57],36.4 µM (inactive)
same,GI50,[44],> 65.9 µM (inactive)
same,GI50,[58],> 94.2 µM (inactive)
same,GI50,[45],> 71.8 µM (inactive)
same,GI50,[46],> 87.9 µM (inactive)
same,GI50,[47],49.5 µM (inactive)
same,GI50,[48],> 100 µM (inactive)
same,GI50,[49],73.8 µM (inactive)
same,GI50,[50],78.7 µM (inactive)
same,GI50,[51],> 72.9 µM (inactive)
same,GI50,[59],> 64 µM (inactive)
CC1=C[P+](Cc2ccccc2)(c2ccccc2)CC1 (stereo not given),GI50,[2],30.1 µM (inactive)
same,GI50,[4],> 100 µM (inactive)
same,GI50,[7],64.3 µM (inactive)
same,GI50,[8],27.8 µM (inactive)
same,GI50,[12],74.3 µM (inactive)
same,GI50,[13],61.1 µM (inactive)
same,GI50,[14],67.5 µM (inactive)
same,GI50,[17],93.8 µM (inactive)
same,GI50,[19],71.6 µM (inactive)
same,GI50,[20],30.9 µM (inactive)
same,GI50,[21],37.7 µM (inactive)
same,GI50,[24],85.3 µM (inactive)
same,GI50,[25],80.2 µM (inactive)
same,GI50,[29],65.2 µM (inactive)
same,GI50,[55],28.6 µM (inactive)
same,GI50,[31],80.9 µM (inactive)
same,GI50,[32],24.1 µM (inactive)
same,GI50,[34],97.1 µM (inactive)
same,GI50,[35],> 100 µM (inactive)
same,GI50,[37],> 100 µM (inactive)
same,GI50,[40],77.3 µM (inactive)
same,GI50,[41],> 100 µM (inactive)
same,GI50,[42],78.7 µM (inactive)
same,GI50,[44],43.2 µM (inactive)
same,GI50,[45],31.8 µM (inactive)
same,GI50,[51],31.7 µM (inactive)
